19 molecules from US12577206B2 (BRISTOL-MYERS SQUIBB COMPANY, priority 2020, dated 2026) can be followed below.

Bounds are passed on as bounds.

One experiment concerns the target T1, human FPR2 (Homo sapiens, UniProt P25090).
T1 sequence (P25090 1-351): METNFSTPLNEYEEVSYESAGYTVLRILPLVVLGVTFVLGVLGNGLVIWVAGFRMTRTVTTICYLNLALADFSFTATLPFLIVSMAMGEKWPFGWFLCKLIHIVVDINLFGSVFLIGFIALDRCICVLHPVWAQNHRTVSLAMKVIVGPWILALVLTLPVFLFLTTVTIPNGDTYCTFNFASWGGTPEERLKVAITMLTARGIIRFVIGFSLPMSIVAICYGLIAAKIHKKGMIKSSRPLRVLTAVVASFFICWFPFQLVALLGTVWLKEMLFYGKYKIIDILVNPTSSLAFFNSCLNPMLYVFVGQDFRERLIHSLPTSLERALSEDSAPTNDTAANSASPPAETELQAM
As to the kind of experiment: FPR2 cyclic adenosine monophosphate (cAMP) assay. Type of experiment: cell-based. The following applies: CHO cells overexpressing human FPR2; forskolin 5 μM; inhibition of cAMP production; HTRF; read-out: hFPR2 cAMP2 EC50. The method, boiled down:
(§1)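 Gi-coupled activity is read as suppression of forskolin-stimulated cAMP (10 μM final for FPR1, 5 μM final for FPR2; IBMX 200 μM final) in recombinant CHO cells, 30 min incubation at rt, HTRF detection.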
(Changes in cAMP serve as a functional read-out for many G protein-coupled receptors.)

A further experiment addresses T2, human FPR1 (Homo sapiens, UniProt P21462).
T2 sequence (P21462 1-350): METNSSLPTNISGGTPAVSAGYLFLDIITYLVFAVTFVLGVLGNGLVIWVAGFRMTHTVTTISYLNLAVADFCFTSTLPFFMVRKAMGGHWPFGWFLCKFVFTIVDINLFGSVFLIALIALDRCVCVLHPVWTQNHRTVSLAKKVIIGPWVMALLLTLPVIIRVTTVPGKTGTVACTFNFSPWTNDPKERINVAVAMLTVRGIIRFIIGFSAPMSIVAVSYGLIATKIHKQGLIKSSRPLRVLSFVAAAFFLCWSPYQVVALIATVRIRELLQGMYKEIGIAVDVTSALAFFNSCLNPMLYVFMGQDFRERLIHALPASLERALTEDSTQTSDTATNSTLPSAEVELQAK
As to the kind of experiment: FPR1 cyclic adenosine monophosphate (cAMP) assay. The following applies: CHO cells overexpressing human FPR1; forskolin 10 μM; inhibition of cAMP production; HTRF; read-out: hFPR1 cAMP2 EC50. Type of experiment: cell-based. The method, boiled down: as §1

For `COc1cc(F)c(-c2c(NC(=O)c3ccc(OC(F)F)cc3)c(=O)n(-c3cccc(OC(F)F)n3)n2C)c(F)c1` [Example 168, N-[5-(2,6-difluoro-4-methoxyphenyl)-2-[6-(difluoromethoxy)pyridin-2-yl]-1-methyl-3-oxo-2,3-dihydro-1H-pyrazol-4-yl]-4-(difluoromethoxy)benzamide], the EC50 on human FPR2 was 12 nM; at human FPR1, over 10000 nM.
`COc1cc(F)c(-c2c(NC(=O)c3ccc(Cl)cc3)c(=O)n(-c3ccc(C)cn3)n2C)c(F)c1` [Example 48, 4-chloro-N-[5-(2,6-difluoro-4-methoxyphenyl)-1-methyl-2-(5-methylpyridin-2-yl)-3-oxo-2,3-dihydro-1H-pyrazol-4-yl]benzamide]: the EC50 is 43 nM on human FPR2 and over 10000 nM on human FPR1.
For `COc1cc(F)c(-c2c(NC(=O)c3ccc(OC(F)F)cc3)c(=O)n(-c3cccc(C4CC4)c3)n2C)c(F)c1` [Example 111, N-[2-(3-cyclopropylphenyl)-5-(2,6-difluoro-4-methoxyphenyl)-1-methyl-3-oxo-2,3-dihydro-1H-pyrazol-4-yl]-4-(difluoromethoxy)benzamide] the same measures were 4 nM and 2 nM.
The matching figures for `COc1cc(-n2c(=O)c(NC(=O)c3ccc(OC(F)F)cc3)c(-c3c(F)cc(OC)cc3F)n2C)nc(C(F)(F)F)c1` [Example 162, N-[5-(2,6-difluoro-4-methoxyphenyl)-2-[4-methoxy-6-(trifluoromethyl)pyridin-2-yl]-1-methyl-3-oxo-2,3-dihydro-1H-pyrazol-4-yl]-4-(difluoromethoxy)benzamide]: 12 nM and over 10000 nM.
The matching figures for `COc1cc(F)c(-c2c(NC(=O)c3ccc(OC(F)F)cc3)c(=O)n(-c3ncccc3Cl)n2C)c(F)c1` [Example 197, N-[2-(3-chloropyridin-2-yl)-5-(2,6-difluoro-4-methoxyphenyl)-1-methyl-3-oxo-2,3-dihydro-1H-pyrazol-4-yl]-4-(difluoromethoxy)benzamide]: 16 nM and over 10000 nM.
As for `COc1cc(F)c(-c2c(NC(=O)c3ccc(OC(F)F)cc3)c(=O)n(-c3nc(N4CCN(C)CC4)ccc3Cl)n2C)c(F)c1` [Example 143, N-{2-[3-chloro-6-(4-methylpiperazin-1-yl)pyridin-2-yl]-5-(2,6-difluoro-4-methoxyphenyl)-1-methyl-3-oxo-2,3-dihydro-1H-pyrazol-4-yl}-4-(difluoromethoxy)benzamide], the EC50 was 10 nM at human FPR2 and 3700 nM at human FPR1.
Regarding `COc1cc(F)c(-c2c(NC(=O)c3ccc(OC(F)F)cc3)c(=O)n(-c3cc(OCC(C)O)cc(C)n3)n2C)c(F)c1` (centres unmarked) [Example 393, N-(5-(2,6-Difluoro-4-methoxyphenyl)-2-(4-(2-hydroxypropoxy)-6-methylpyridin-2-yl)-1-methyl-3-oxo-2,3-dihydro-1H-pyrazol-4-yl)-4-(difluoromethoxy)benzamide], the EC50 at human FPR2 is 15 nM; on human FPR1, 2800 nM.
On to `COc1cc(F)c(-c2c(NC(=O)c3ccc(OC(F)F)cc3)c(=O)n(-c3cc(C)cc(C4CCN(C)CC4)n3)n2C)c(F)c1` [Example 361], for which the results for the EC50 at human FPR2 and at human FPR1 were 1 nM and over 10000 nM, respectively.
Consider `COc1cc(F)c(-c2c(NC(=O)c3ccc(OC(F)F)cc3)c(=O)n(-c3cccc(F)c3C#N)n2C)c(F)c1` [Example 178, N-[2-(2-cyano-3-fluorophenyl)-5-(2,6-difluoro-4-methoxyphenyl)-1-methyl-3-oxo-2,3-dihydro-1H-pyrazol-4-yl]-4-(difluoromethoxy)benzamide], for which the EC50 at human FPR2 was 6 nM; on human FPR1, over 10000 nM.
For `COc1cc(F)c(-c2c(NC(=O)c3ccc(OC(F)F)cc3)c(=O)n(-c3nc(N4CC(OC(C)C)C4)ccc3C(F)(F)F)n2C)c(F)c1` [Example 140, N-[5-(2,6-difluoro-4-methoxyphenyl)-1-methyl-3-oxo-2-{6-[3-(propan-2-yloxy)azetidin-1-yl]-3-(trifluoromethyl)pyridin-2-yl}-2,3-dihydro-1H-pyrazol-4-yl]-4-(difluoromethoxy)benzamide] the same measures were 4 nM and 1500 nM.
For `COc1cc(F)c(-c2c(NC(=O)c3ccc(OC(F)F)cc3)c(=O)n(-c3nc(N4CCN5CCC[C@@H]5C4)ccc3C(F)(F)F)n2C)c(F)c1` [Example 306, N-(2-{6-[(8aR)-octahydropyrrolo[1,2-a]piperazin-2-yl]-3-(trifluoromethyl)pyridin-2-yl}-5-(2,6-difluoro-4-methoxyphenyl)-1-methyl-3-oxo-2,3-dihydro-1H-pyrazol-4-yl)-4-(difluoromethoxy)benzamide] the same measures were 1 nM and 2300 nM.
The matching figures for `COc1cc(C)cc(-n2c(=O)c(NC(=O)c3ccc(OC(F)F)cc3)c(-c3c(F)cc(OC)cc3F)n2C)c1` [Example 121, N-[5-(2,6-difluoro-4-methoxyphenyl)-2-(3-methoxy-5-methylphenyl)-1-methyl-3-oxo-2,3-dihydro-1H-pyrazol-4-yl]-4-(difluoromethoxy)benzamide]: 6 nM and over 10000 nM.
Take `COc1cc(OC(CO)C(F)(F)F)nc(-n2c(=O)c(NC(=O)c3ccc(OC(F)F)cc3)c(-c3c(F)cc(OC)cc3F)n2C)c1` (centres unmarked) [Example 381, N-(5-(2,6-Difluoro-4-methoxyphenyl)-2-(4-methoxy-6-((1,1,1-trifluoro-3-hydroxypropan-2-yl)oxy)pyridin-2-yl)-1-methyl-3-oxo-2,3-dihydro-1H-pyrazol-4-yl)-4-(difluoromethoxy)benzamide]: the concentration for a half-maximal effect (EC50) was determined as 2 nM at human FPR2 and 1900 nM on human FPR1.
The matching figures for `COc1cc(F)c(-c2c(NC(=O)c3ccc(OC(F)F)cc3)c(=O)n(-c3cccc(C4(O)CCC4)n3)n2C)c(F)c1` [Example 87, N-(5-(2,6-difluoro-4-methoxyphenyl)-2-(6-(1-hydroxycyclobutyl)pyridin-2-yl)-1-methyl-3-oxo-2,3-dihydro-1H-pyrazol-4-yl)-4-(difluoromethoxy)benzamide]: 4 nM and 780 nM.
Regarding `COc1cc(F)c(-c2c(NC(=O)c3ccc(OC(F)F)cc3)c(=O)n(-c3nccc(C)c3C#N)n2C)c(F)c1` [Example 201, N-[2-(3-cyano-4-methylpyridin-2-yl)-5-(2,6-difluoro-4-methoxyphenyl)-1-methyl-3-oxo-2,3-dihydro-1H-pyrazol-4-yl]-4-(difluoromethoxy)benzamide], the results for the EC50 at human FPR2 and at human FPR1 were 4 nM and over 10000 nM, respectively.
Consider `COc1cc(F)c(-c2c(NC(=O)c3ccc(OC(F)F)cc3)c(=O)n(-c3cccc(N4CCN(CCCO)CC4)n3)n2C)c(F)c1` [Example 208, N-[5-(2,6-difluoro-4-methoxyphenyl)-2-{6-[4-(3-hydroxypropyl)piperazin-1-yl]pyridin-2-yl}-1-methyl-3-oxo-2,3-dihydro-1H-pyrazol 4-yl]-4-(difluoromethoxy)benzamide], for which the EC50 at human FPR2 was 3 nM; on human FPR1, over 10000 nM.
For `CC(C)Oc1cc(OCCO)nc(-n2c(=O)c(NC(=O)c3ccc(OC(F)F)cc3)c(-c3c(F)cc(Cl)cc3F)n2C)c1` [Example 399, N-(5-(4-chloro-2,6-difluorophenyl)-2-(6-(2-hydroxyethoxy)-4-isopropoxypyridin-2-yl)-1-methyl-3-oxo-2,3-dihydro-1H-pyrazol-4-yl)-4-(difluoromethoxy)benzamide] the same measures were 11 nM and 550 nM.
The matching figures for `COc1cc(F)c(-c2c(NC(=O)c3ccc(OC(F)(F)F)cc3)c(=O)n(-c3cccc(C(F)F)n3)n2C)c(F)c1` [Example 68, N-[5-(2,6-difluoro-4-methoxyphenyl)-2-[6-(difluoromethyl)pyridin-2-yl]-1-methyl-3-oxo-2,3-dihydro-1H-pyrazol-4-yl]-4-(trifluoromethoxy)benzamide]: 8 nM and 1000 nM.
The matching figures for `COc1cc(F)c(-c2c(NC(=O)c3ccc(OC(F)F)cc3)c(=O)n(-c3nc(N[C@@H]4CCOC4)ccc3C(F)(F)F)n2C)c(F)c1` [Example 254, N-[5-(2,6-difluoro-4-methoxyphenyl)-1-methyl-3-oxo-2-(6-{[(3R)-oxolan-3-yl]amino}-3-(trifluoromethyl)pyridin-2-yl)-2,3-dihydro-1H-pyrazol-4-yl]-4-(difluoromethoxy)benzamide]: 4 nM and over 10000 nM.

By EC50 is commonly meant the concentration giving half of the maximal effect.
